Assays:
[1] = tested on: K562 cell line; test: Testing on K562 leukemia cell line (MTT cytotoxicity); assay type: cell-based, human; settings: K562 cells, 72 h incubation, preliminary screening, read-out: K562 (CML) IC50
Protocol: (§1) Retinoates of harringtonines described in this invention were tested on K562 cell line which is derived from the pleural effusion of a person with chronic myelogenous leukemia (CML, bcr-abl positive) in terminal blast crises (Lozzio and Lozzio, Blood, 1975, p321). The cell line was purchased from ATCC (American Tissue Culture Collection) and grown in RPMI medium supplemented with 10% heat-inactivated fetal calf serum, 2 mmol/L glutamine, […] penicillin and […] streptomycin. All tested products were initially dissolved in 2N HCl (pH=2) (alkaloid base) or in aqueous solvent (salt) or in DMSO (retinoids), supplemented with ultrasound treatment during 1 h. Working concentrations were made by dilution in culture medium (pH 7). Cells in exponential growth phase were placed into 96-microwell plates in concentration 3x10^4/mL (total volume 200 µL/well) and incubated with drugs for 72 h at 37° C. in 5% CO2 humidified atmosphere. Following incubation, 28 µL of MTT 3-(4,5 dimethylthiazol-2-yl)-2,5 tetrazolium bromide] dye solution (Sigma, St. Louis, Mo.) was added to each well. During the following 6 h of incubation at 37° C., the purple formazan product was formed by conversion of the yellow MTT salt in the mitochondria of the viable cells. The resulting precipitate was dissolved in DMSO and the amount of converted MTT was quantified in an ELISA reader (MR 5000, Dynatech). Each product was tested in triplicate (3x8 wells). Every test contained at least one plate with HHT as control, added in the same concentration as the tested products.

[2] = tested on: HL-60 cell line; test: Testing on HL-60 leukemia cell line (MTT cytotoxicity); assay type: cell-based, human; settings: HL-60 cells, medium with 20% fetal bovine serum, preliminary screening, read-out: HL60 (APL) IC50
Protocol: as §1
Retinoates of harringtonines described in this invention were tested on HL-60 cell line, derived from acute promyelocytic leukemia (APL) cells. HL-60 is a promyelocytic cell line derived by S.J. Collins, et al. (Proc. Natl. Acad. Sci. USA 1978 p2458). Peripheral blood leukocytes were obtained by leukopheresis from a person with APL (Gallagher R, et al. Blood 1978, p713) The cell line was purchased from ATCC (American Tissue Culture Collection) and the base growth medium was also completed with fetal bovine serum but at a final concentration of 20%, otherwise the same method than the one of example 10 was used.
Preliminary screening using this tumor cell lines are gathered in table 1.

[3] = tested on: MDA-MB-468; test: Testing on breast cancer cell lines, sulforhodamine B (SRB) cell viability assay; assay type: cell-based, human; settings: MDA-MB-468 breast cancer cells, preliminary screening, read-out: M DA-MB-468 (BC) IC50
Protocol: Operating Procedure were performed as described in the recent paper of Yakhni et al [Yakhni AM J CANCER RES 2019; 9(5) in press "Homoharringtonine, on approved anti-leukemia drug, suppresses triple negative breast cancer growth through a rapid reduction of anti-apoptotic protein abundance"]
The cell lines used in this study were MDA-MB-231 (ATCC® HTB-26™), MDA-MB-468 (ATCC® HTB-132™), MDA-MB-157 (ATCC® HTB-24™) and CAL-51. Those lines were chosen to represent the BRCA1/2 non-mutated TNBC transcriptomic subtypes, currently most in need of efficacious treatment due to lower sensibility of BRCA1 wild-type TNBC to the DNA-damaging chemotherapy (Masuda et al., Clin Cancer Res. 2013, p5533; Jiang et al., PLoS Med. 2016, pe1002193; Park et al. ESMO Open. 2018, pe000357). CAL-51 line represents the mesenchymal transcriptomic subtype whereas MDA-MB-157 and MDA-MB-231 represent the mesenchymal stem-like subtype (Lehmann et al. J Clin Invest. 2011, p2750). MDA-MB-468 was used as a model of aggressive, PTEN-negative TNBC, with hyperactivated EGFR signaling pathway due to EGFR amplification (Filmus et al., Biochem Biophys Res Commun. 1985, p898). MDA-MB-468 transcriptome classifies it into the basal-like 1 subtype (49). The MDA lines were purchased from the American Type Culture Collection (ATCC, Manassas, VA, USA). The CAL-51 was kindly provided by Dr Gerard Milano, from the Centre Antoine Lacassagne, Nice, France, where the line has been established (Gioanni et al., Br J Cancer 1990, p8). After initial expansion, the cell line stock vials were conserved, in liquid nitrogen, at the Biological Resource Center of Jean Perrin Comprehensive Cancer Center (biobank ID BB-0033-00075, Clermont-Ferrand, France). The MDA cell lines were cultured in the Leibovitz L-15 medium, whereas CAL-51 line was maintained in DMEM (both media from Invitrogen Life Technologies, Carlsbad, CA, USA). The media were supplemented with 10% heat-inactivated fetal bovine serum and […] gentamicin. CAL-51 line was kept at 37°C, in a humidified atmosphere with 5% CO2; the MDA lines were kept under the same conditions, however, without CO2, in a free gas exchange with atmospheric air. All cell lines were maintained in monolayer culture, in the sub-confluent status, with no more 30 passages of the cells thawed from the stock vial.
Homoharringtonine was supplied by LeukePharma Inc. (Houston, TX, USA) as water-soluble, crystalline tartaric acid salt. Initial stock solution of HHT-tartrate was prepared at 10 mM in sterile deionized water, aliquoted and kept at -80°C. For each experiment, a fresh HHT solution was prepared by dissolving the HHT stock in phosphate-buffered saline (PBS, GIBCO™, Invitrogen, Cergy-Pontoise, France).
Cell viability was assessed using the sulforhodamine B (SRB) assay (Sigma-Aldrich, St Louis, MO, USA) according to the method described by Vichai and Kirtikara (Nat Protoc. 2006, p1112). Cells were seeded in 96-well plates, at 5x10^3 or 1x10^3 cells/well (the MDA cell lines and CAL-51, respectively), left overnight to adhere and then treated with growing concentrations of HHT for 24h, 48h or 72h. After incubation with the drug, cells were washed twice with PBS and left for 72 h in the corresponding complete culture medium. Then the cells were fixed with trichloroacetic acid (final concentration 10%) at 4°C for 1 h, followed with plate washing with water five times, air drying and staining with 0.4% SRB dissolved in 1% acetic acid, at room temperature, for 30 min. The plates were subsequently washed four times with 1% acetic acid to remove unbound stain. To solubilize the protein-bound dye, 10 mM Tris base solution was added to each well. The cell viability, estimated through the present protein biomass, was determined by measuring optical density of the dye, using a spectrophotometer at wavelength of 540 nm (BMG Labtech, Ortenberg, Germany).
Preliminary screening using these tumor cell lines are gathered in table 1.

[4] = Solubility determination in water; assay type: physicochemical; settings: 25° C., semi-quantitative
Protocol: Solubility in water at 25° C. was measured semi-quantitatively at a threshold of 5 g per 100 mL. All the homoharringtonine salts described in the below examples, unless otherwise stated, are soluble at this threshold. Homoharringtonine base itself is soluble at a threshold lower than 0.1 g per mL.

Compound	IC50 [1] [nM]	IC50 [2] [nM]	IC50 [3] [nM]	solubility [4] [mg/mL]
CC1(C)C(=O)C(C)(C)c2cc(C(=O)Nc3ccc(C(=O)O)cc3)ccc21.COC(=O)CC(O)(CCCC(C)(C)O)C(=O)O[C@@H]1C(OC)=C[C@]23CCCN2CCc2cc4c(cc2[C@H]13)OCO4 (stereo partly drawn) [Example 15, Butanedioic acid, 2-hydroxy-2-(4-hydroxy-4-methylpentyl)-, 1-[(1S,3aR,14bS)-1,5,6,8,9,14b-hexahydro-2-methoxy-4H-cyclopenta[a][1,3]dioxolo[4,5-h]pyrrolo[2,1-b][3]benzazepin-1-yl]4-methyl ester, 4-[[(2,3-Dihydro-1,1,3,3-tetramethyl-2-oxo-1H-inden-5-yl)carbonyl]amino]benzoate]	< 50	< 100	< 50	
CC1=C(/C=C/C(C)=C/C=C/C(C)=C/C(=O)O)C(C)(C)CCC1.COC(=O)C[C@](O)(CCCC(C)(C)O)C(=O)O[C@@H]1C(OC)=C[C@]23CCCN2CCc2cc4c(cc2[C@H]13)OCO4 (relative stereo) [Example 1, homoharringtonine all-trans-retinoate]	< 50	< 100	< 50	
COC(=O)C[C@](O)(CCCC(C)(C)O)C(=O)O[C@@H]1C(OC)=C[C@]23CCCN2CCc2cc4c(cc2[C@H]13)OCO4 [Homoharringtonine base, Homoharringtonine]				< 100
OP5215, Am 580 salt [Example 27]	< 10	< 20	< 10	
COC(=O)C[C@](O)(CCCC(C)(C)O)C(=O)O[C@@H]1C(OC)=C[C@]23CCCN2CCc2cc4c(cc2[C@H]13)OCO4.COc1ccc(-c2ccc3cc(C(=O)O)ccc3c2)cc1C12CC3CC(CC(C3)C1)C2 [Example 8, homoharringtonine "adapalenoate"]	< 50	< 100	< 50	
OP5215 tamibarotenoate [Example 26]	< 10	< 20	< 10	
COC(=O)CC(O)(CCCC(C)(C)O)C(=O)O[C@@H]1C(OC)=C[C@]23CCCN2CCc2cc4c(cc2[C@H]13)OCO4.O=C(O)c1ccc(-c2ccc3cc(O)c(C45CC6CC(CC(C6)C4)C5)cc3c2)cc1 (stereo partly drawn) [Example 12, Butanedioic acid, 2-hydroxy-2-(4-hydroxy-4-methylpentyl)-, 1-[(1S,3aR,14bS)-1,5,6,8,9,14b-hexahydro-2-methoxy-4H-cyclopenta[a][1,3]dioxolo[4,5-h]pyrrolo[2,1-b][3]benzazepin-1-yl]4-methyl ester, 4-(6-Hydroxy-7-tricyclo[3.3.1.1^3,7]dec-1-yl-2-naphthalenyl)benzoate]	< 50	< 100	< 50	
CC1(C)CCC(C)(C)c2cc(C(=O)Nc3ccc(C(=O)O)cc3)ccc21.COC(=O)C[C@](O)(CCCC(C)(C)O)C(=O)O[C@@H]1C(OC)=C[C@]23CCCN2CCc2cc4c(cc2[C@H]13)OCO4 [Example 23, homoharringtonine Am 580 salt]	< 50	< 100	< 50	
COC(=O)CC(O)(CCCC(C)(C)O)C(=O)O[C@@H]1C(OC)=C[C@]23CCCN2CCc2cc4c(cc2[C@H]13)OCO4.O=C(O)c1ccc2cc(-c3ccc(O)c(C45CC6CC(CC(C6)C4)C5)c3)ccc2c1 (stereo partly drawn) [Example 11, Butanedioic acid, 2-hydroxy-2-(4-hydroxy-4-methylpentyl)-, 1-[(1S,3aR,14bS)-1,5,6,8,9,14b-hexahydro-2-methoxy-4H-cyclopenta[a][1,3]dioxolo[4,5-h]pyrrolo[2,1-b][3]benzazepin-1-yl]4-methyl ester, 6-[3-(1-adamantyl)-4-hydroxyphenyl]-2-naphtalenecarboxylate]	< 50	< 100	< 50	
C=C(c1ccc(C(=O)O)cc1)c1cc2c(cc1C)C(C)(C)CCC2(C)C.COC(=O)C[C@](O)(CCCC(C)(C)O)C(=O)O[C@@H]1C(OC)=C[C@]23CCCN2CCc2cc4c(cc2[C@H]13)OCO4 [Example 7, homoharringtonine "bexarotenoate"]	< 20	< 20	< 20	
